Measurements from ChEMBL document CHEMBL4270497, “Recent advances (2015-2016) in anticancer hybrids” (Eur J Med Chem, 2017).

Assays:
A549 [1] = test: Cytotoxicity in human A549 cells assessed a reduction in cell viability incubated for 48 hrs by MTT assay; assay type: functional, cell-based; settings: A549, 48 h
HT-29 [2] = test: Cytotoxicity in human HT-29 cells assessed as reduction in cell viability incubated for 48 hrs by MTT assay; assay type: functional, cell-based; settings: HT-29, 48 h
PC-3 [3] = test: Cytotoxicity in human PC3 cells assessed as reduction in cell viability incubated for 48 hrs by MTT assay; assay type: functional, cell-based; settings: PC-3, 48 h
A549 [4] = test: Cytotoxicity in human A549 cells assessed as reduction in cell viability incubated for 48 hrs by MTT assay; assay type: functional, cell-based; settings: A549, 48 h
U-87 MG = test: Cytotoxicity in human U87MG cells assessed as reduction in cell viability incubated for 48 hrs by MTT assay; assay type: functional, cell-based, U-87MG ATCC
MCF7 [5] = test: Antiproliferative activity against human MCF7 cells incubated for 24 hrs by MTT assay; assay type: functional, cell-based; settings: MCF7, 24 h
A549 [6] = test: Antiproliferative activity against human A549 cells incubated for 24 hrs by MTT assay; assay type: functional, cell-based; settings: A549, 24 h
HeLa [7] = test: Antiproliferative activity against human HeLa cells incubated for 24 hrs by MTT assay; assay type: functional, cell-based
HeLa [8] = test: Antiproliferative activity against human HeLa cells incubated for 48 hrs by MTT assay; assay type: functional, cell-based
MCF7 [9] = test: Antiproliferative activity against human MCF7 cells incubated for 48 hrs by MTT assay; assay type: functional, cell-based; settings: MCF7, 48 h
A549 [10] = test: Antiproliferative activity against human A549 cells incubated for 48 hrs by MTT assay; assay type: functional, cell-based; settings: A549, 48 h
HCT-116 = test: Antiproliferative activity against human HCT116 cells incubated for 48 hrs by MTT assay; assay type: functional, cell-based; settings: HCT-116, 48 h
MCF7 [11] = test: Cytotoxicity in human MCF7 cells assessed as reduction in cell viability incubated for 48 hrs by MTT assay; assay type: functional, cell-based; settings: MCF7, 48 h
Bel-7402 = test: Antiproliferative activity against human Bel7402 cells incubated for 48 hrs by MTT assay; assay type: functional; settings: Bel-7402, 48 h
PC-3 [12] = test: Antiproliferative activity against human PC3 cells incubated for 48 hrs by MTT assay; assay type: functional; settings: PC-3, 48 h
K562 [13] = test: Antiproliferative activity against human K562 cells incubated for 48 hrs by MTT assay; assay type: functional; settings: K562, 48 h
[14] = target: Vascular endothelial growth factor receptor 1 (Homo sapiens, UniProt P17948); test: Inhibition of VEGFR1 (unknown origin) using KKKSPGEYVNIEFG substrate and [33P-g-ATP] incubated for 30 mins
Vascular endothelial growth factor receptor 1, sequence (P17948 whole entry): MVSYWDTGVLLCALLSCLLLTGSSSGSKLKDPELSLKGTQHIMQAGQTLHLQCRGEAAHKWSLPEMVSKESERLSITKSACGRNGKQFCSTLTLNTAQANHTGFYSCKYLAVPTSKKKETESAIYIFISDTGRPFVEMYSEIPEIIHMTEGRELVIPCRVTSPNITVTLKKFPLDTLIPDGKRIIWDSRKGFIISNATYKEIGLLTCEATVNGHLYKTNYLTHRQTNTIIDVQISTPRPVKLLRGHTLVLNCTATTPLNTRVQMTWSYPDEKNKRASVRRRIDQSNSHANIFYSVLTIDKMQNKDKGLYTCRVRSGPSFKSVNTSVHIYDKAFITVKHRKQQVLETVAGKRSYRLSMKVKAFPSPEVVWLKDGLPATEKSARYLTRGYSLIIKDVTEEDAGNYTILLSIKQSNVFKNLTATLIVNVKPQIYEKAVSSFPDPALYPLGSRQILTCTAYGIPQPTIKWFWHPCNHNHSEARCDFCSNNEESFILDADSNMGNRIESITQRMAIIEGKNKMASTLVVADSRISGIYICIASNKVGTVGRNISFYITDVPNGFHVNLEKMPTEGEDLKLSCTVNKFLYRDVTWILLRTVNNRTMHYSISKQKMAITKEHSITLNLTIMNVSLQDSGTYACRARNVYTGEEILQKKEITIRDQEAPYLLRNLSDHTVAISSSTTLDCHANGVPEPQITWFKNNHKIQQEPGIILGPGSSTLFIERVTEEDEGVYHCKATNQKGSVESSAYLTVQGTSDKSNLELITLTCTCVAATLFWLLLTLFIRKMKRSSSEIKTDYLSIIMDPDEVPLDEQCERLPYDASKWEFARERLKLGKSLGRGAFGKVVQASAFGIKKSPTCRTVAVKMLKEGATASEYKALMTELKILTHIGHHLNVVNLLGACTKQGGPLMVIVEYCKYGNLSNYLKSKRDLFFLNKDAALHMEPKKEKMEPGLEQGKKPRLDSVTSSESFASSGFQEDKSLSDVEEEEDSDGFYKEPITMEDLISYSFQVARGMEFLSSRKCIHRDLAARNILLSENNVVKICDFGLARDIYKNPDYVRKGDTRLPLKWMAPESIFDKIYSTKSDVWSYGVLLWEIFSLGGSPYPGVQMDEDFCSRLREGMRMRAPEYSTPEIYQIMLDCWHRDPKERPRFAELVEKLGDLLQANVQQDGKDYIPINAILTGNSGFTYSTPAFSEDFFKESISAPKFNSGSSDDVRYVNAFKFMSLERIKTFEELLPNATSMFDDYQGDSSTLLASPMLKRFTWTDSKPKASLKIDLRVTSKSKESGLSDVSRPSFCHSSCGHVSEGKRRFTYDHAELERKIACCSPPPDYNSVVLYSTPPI

HUVEC = test: Inhibition of VEGF-induced cell migration of HUVEC assessed as wound closure level at cytotoxic IC50 incubated for 24 hrs (reference value: 100%); assay type: functional, Homo sapiens; set-up: scale not given: the % may be the effect or the level left
REH = test: Cytotoxicity in human REH cells assessed as reduction in cell viability incubated for 48 to 72 hrs by trypan blue dye exclusion assay; assay type: functional, cell-based
K562 [15] = test: Cytotoxicity in human K562 cells assessed as reduction in cell viability incubated for 48 to 72 hrs by trypan blue dye exclusion assay; assay type: functional, cell-based
MDA-MB-231 = test: cells; settings: Homo sapiens, MDA-MB-231, 24 h
Description: Cytotoxicity in human MDA-MB-231 cells assessed as reduction in cell viability incubated for 24 hrs by MTT assay

[16] = test system: Panel NCI-60 (60 carcinoma cell lines); test: Growth inhibition of human NCI60 cells incubated for 48 hrs by SRB assay; assay type: functional
HT-29 [17] = test: Antiproliferative activity against human HT-29 cells incubated for 48 hrs by MTT assay; assay type: functional, cell-based; settings: HT-29, 48 h
DU-145 = test: Antiproliferative activity against human DU145 cells incubated for 48 hrs by MTT assay; assay type: functional, cell-based; settings: DU-145, 48 h
HEK293 = test: Antiproliferative activity against HEK293 cells incubated for 48 hrs by MTT assay; assay type: cell-based; settings: Homo sapiens, HEK293, 48 h

Compound: Nc1ccc(C(=O)/C=C/c2cc3c([nH]c4ccccc43)c(-c3ccc(F)cc3)n2)cc1
- IC50 (A549 [1]): < 10 µM

Compound: COc1ccc(Cn2cc(C(=O)c3cn(-c4ccccc4)nc3-c3ccc(F)cc3)nn2)cc1OC
- IC50 (HT-29 [2]): 2540 nM
- IC50 (PC-3 [3]): 5.87 µM
- IC50 (A549 [4]): 2130 nM
- IC50 (U-87 MG): 3.76 µM

Compound: COc1cc(-c2nc(/C=C/C(=O)c3ccc(N)cc3)cc3c2[nH]c2ccccc23)ccc1F
- IC50 (A549 [1]): < 10 µM

Compound: COc1ccc(Cc2nnc(COc3ncnc4ccccc34)o2)cc1OC
- IC50 (MCF7 [5]): 230 nM
- IC50 (A549 [6]): 380 nM
- IC50 (HeLa [7]): 320 nM

Compound: COc1ccc(Nc2ncccc2C(=O)/C=C/Nc2ccc3[nH]ccc3c2)cc1
- IC50 (HeLa [8]): 510 to 1290 nM
- IC50 (MCF7 [9]): 510 to 1290 nM
- IC50 (A549 [10]): 510 to 1290 nM
- IC50 (HCT-116): 510 to 1290 nM

Compound: COc1ccc(-c2nc(/C=C/C(=O)c3cc(OC)c(OC)c(OC)c3)cc3c2[nH]c2ccccc23)cc1OC
- IC50 (A549 [1]): < 10 µM

Compound: O=C(/C=C/c1cc2c([nH]c3ccccc32)c(-c2ccc(F)cc2)n1)c1ccc([N+](=O)[O-])cc1
- IC50 (A549 [1]): < 10 µM

Compound: COc1ccc(-c2nc(/C=C/C(=O)c3ccc(F)cc3)cc3c2[nH]c2ccccc23)cc1OC
- IC50 (A549 [1]): < 10 µM

Compound: COc1ccc(C(=O)/C=C/c2cc3c([nH]c4ccccc43)c(-c3ccc(F)cc3)n2)cc1
- IC50 (A549 [1]): < 10 µM

Compound: O=Cc1c(-c2cc3cc(Br)ccc3oc2=O)[nH]c2ccccc12
- IC50 (MCF7 [11]): 7.4 µM

Compound: COc1cc(-c2nc(/C=C/C(=O)c3cc(OC)c(OC)c(OC)c3)cc3c2[nH]c2ccccc23)ccc1F
- IC50 (A549 [1]): < 10 µM

Compound: COc1ccc(-c2nc(/C=C/C(=O)c3ccc([N+](=O)[O-])cc3)cc3c2[nH]c2ccccc23)cc1OC
- IC50 (A549 [1]): < 10 µM

Compound: COc1cc(-c2nc(/C=C/C(=O)c3ccc(N)cc3)cc3c2[nH]c2ccccc23)cc(OC)c1OC
- IC50 (A549 [1]): < 10 µM

Compound: COc1ccc(C(=O)/C=C/c2cc3c([nH]c4ccccc43)c(-c3ccc(OC)c(OC)c3)n2)cc1
- IC50 (A549 [1]): < 10 µM

Compound: COc1cc(-c2nc(/C=C/C(=O)c3ccc([N+](=O)[O-])cc3)cc3c2[nH]c2ccccc23)cc(OC)c1OC
- IC50 (A549 [1]): < 10 µM

Compound: COc1cc(C(=O)/C=C/c2cc3c([nH]c4ccccc43)c(-c3ccc(F)cc3)n2)cc(OC)c1OC
- IC50 (A549 [1]): < 10 µM

Compound: COc1cc2c(c(OC)c1OC)C/C(=C\c1cccc3[nH]ccc13)C2=O
- GI50 (HeLa [8]): 26 to 35 nM
- GI50 (A549 [10]): 26 to 35 nM
- GI50 (Bel-7402): 26 to 35 nM
- GI50 (PC-3 [12]): 26 to 35 nM
- GI50 (K562 [13]): 26 to 35 nM

Compound: O=C(Nc1ccc(F)cc1)c1sccc1Nc1cccc2c1OCCO2
- IC50 [14]: 1900 nM
- Activity (HUVEC): 20%

Compound: COc1cc(C(=O)N/N=C2\C(=O)Nc3ccc(C)cc32)cc(OC)c1OC
- IC50 (REH): 500 nM
- IC50 (K562 [15]): 2000 nM

Compound: CCCC(CC)NC(=O)c1c(C)[nH]c(/C=C2\C(=O)Nc3nc(C)c(O)c(C)c32)c1C (centres undefined)
- IC50 (MDA-MB-231): 3.21 µM

Compound: CC(=O)N1N=C(c2ccc[nH]2)CC1c1cn(-c2ccccc2)nc1-c1cc2ccccc2o1 (centres undefined)
- GI50 [16]: 1000 to 2710 nM

Compound: O=C(c1cn(Cc2cccc(Oc3ccccc3)c2)nn1)c1cccnc1Nc1ccc(F)cc1
- IC50 (HT-29 [17]): 200 nM
- IC50 (DU-145): 100 nM
- IC50 (A549 [10]): 1100 nM
- IC50 (HEK293): 59.6 µM
